Results as given in US12391667B2, “N-methyl, n-(6-(methoxy)pyridazin-3-yl) amine derivatives as Autotaxin (ATX) modulators for the treatment of inflammatory airway or fibrotic diseases” (Boehringer Ingelheim International GmbH, priority 2019, dated 2025).

Legend:
Human ATX = Human ATX (Homo sapiens (Human), UniProt Q13822); test: Assay A: Biochemical ATX Assay; conditions: 5 nM recombinant ATX, 18:1 LPC substrate, 2 h at room temperature, formation of 18:1 LPA
Procedure: 5 nM recombinant ATX (Cayman Chemicals) was supplemented to 50 mM Tris buffer (pH 8.0) containing 3 mM KCl, 1 mM CaCl2), 1 mM MgCl2 0.14 mM NaCl, and 0.1% bovine serum albumin. Test compounds were dissolved in DMSO and tested in the range of 0.1 nM to 10 μM. The enzymatic reaction (22.5 μL) was started by addition of 2.5 μL 10 μM 18:1 LPC (Avanti Lipids, Alabaster, AL, USA). After 2-h incubation at room temperature, the reaction was stopped by addition of 20 μL water containing 500 nM 20:4 LPA as internal standard and 100 μL 1-butanol for extracting LPA. Subsequently, the plates were centrifuged at 4000 rpm, 4° C., for 2 min. The resultant upper butanol phase was directly used for injection at a RapidFire system (Agilent).
The RapidFire autosampler was coupled to a binary pump (Agilent 1290) and a Triple Quad 6500 (ABSciex, Toronto, Canada). […] 1 The MS was operated in negative mode with a source temperature of 550° C., curtain gas=35, gas 1=65, and gas 2=80. The following transitions and MS parameters (DP: declustering potential and CE: collision energy) for the respective LPAs were determined: 18:1 LPA at 435.2/152.8, DP=−40, CE=−28 and 20:4 LPA at 457.2/152.8, DP=−100, CE=−27).
The formation of 18:1 LPA was monitored and evaluated as ratio to 20:4 LPA.

ATX in human whole blood = ATX in human whole blood (Homo sapiens (Human), UniProt Q13822); test: Assay B: Whole-Blood ATX assay; format: biochemical; conditions: 1 h at 37° C., formation of 18:2 LPA
Procedure: 45 μL human whole-blood was supplemented with 5 μL of the test compound, dissolved in phosphate-buffered saline (concentration range 0.12 nM-100 μM). This mixture was incubated for 1 h at 37° C. and stopped by addition of 100 μL 40 mM disodium hydrogen phosphate buffer containing 30 mM citric acid (pH 4) and 1 μM 17:0 LPA (internal standard). LPA was extracted by addition of 500 μL 1-butanol, followed by 10-min centrifugation at 4000 rpm, 4° C. From the resultant organic supernatant, a 200 μL aliquot was transferred into a 96-deep-well plate and transferred to the RapidFire-based MS/MS measurement.
The RapidFire autosampler was coupled to a binary pump (Agilent 1290) and a Triple Quad 6500 (ABSciex, Toronto, Canada). This system was equipped with a 10-μL loop, 5-μL Waters Atlantis HILIC cartridge (Waters, Elstree, UK), 90% acetonitrile containing 10 mM ammonium acetate as eluent A and 40% acetonitrile containing 10 mM ammoniumacetate as eluent B. For details see (Bretschneider et al., SLAS Discovery, 2017, 22, 425-432). The MS was operated in negative mode with a source temperature of 550° C., curtain gas=35, gas 1=65, and gas 2=80. The following transitions and MS parameters (DP: declustering potential and CE: collision energy) for the respective LPAs were determined: 18:2 LPA at 433.2/152.8, DP=−150, CE=−27 and 17:0 LPA at 423.5/152.8, DP=−100.
The formation of 18:2 LPA was monitored and evaluated as ratio to 17:0 LPA.

[1] = tested on: plasma LPA (ATX inhibition); test: Assay C: In vivo plasma LPA reduction after oral dosing; conditions: rats, 5 mg/kg, 8 hours post application, sum of LPA vs baseline
Procedure: The test substance was solubilized in 0.5% natrosol supplemented with 0.015% Tween 80 for oral application to rats at a dose of 5 mg/kg. Blood samples were collected before compound administration and 8 hours post application on ice using EDTA as coagulation agent. Subsequently, plasma was prepared by centrifugation and stored until analysis at −20° C.
LPAs from plasma samples were extracted by using the procedure described by Scherer et al. (Clinical chemistry 2009, 55, 1218-22). 35 μL of heparinized plasma was mixed with 200 μL 40 mM disodium hydrogen phosphate buffer containing 30 mM citric acid (pH 4) and 1 μM 17:0 LPA (internal standard). Subsequently, 500 μL butanol was added and shaken vigorously for 10 min. Samples were centrifuged afterwards at 4000 rpm, 4° C., for 10 min. 500 μL of the organic upper phase was transferred to a fresh 96-deep-well plate and evaporated with a gentle nitrogen flow of 15 psi for 45 min. The resultant residual was dissolved in 100 μL ethanol prior to LC-MS analysis.
LC-MS Method for the Analytic of In Vivo Samples
A Triple Quad 6500 (ABSciex, Toronto, Canada) was equipped with an Agilent 1290 LC system (Agilent, Santa Clara, CA) a CTC autosampler and an Atlantis 50×2.1-mm, 3-μm HILIC LC column (Waters, Elstree, UK). Eluent A contained 0.2% formic acid and 50 mM ammonium formate in water, whereas eluent B consisted of 0.2% formic acid in acetonitrile. […] At 1.8 min, solvent B was set back to 95% and stayed constant for 0.7 min for re-equilibration of the column. The following LPA species were monitored (DP: declustering potential and CE: collision energy): 16:0 LPA at 409.2/152.8, DP=−150, CE=−28; 18:0 LPA at 437.3/152.8, DP=−60, CE=−28; 18:1 LPA at 435.2/152.8, DP=−40, CE=−28; 18:2 LPA at 433.2/152.8, DP=−150, CE=−28; 20:4 LPA at 457.2/152.8, DP=−100, CE=−29 and 17:0 LPA at 423.5/152.8, DP=−100, CE=−36. LPA depletion in percent was calculated based on the baseline LPA levels before test compound application. The sum of LPA refers to the species 16:0; 18:0; 18:1; 18:2 and 20:4

LPA levels = conditions: as disclosed in literature; cited from earlier work

Structure (SMILES) | IC50 (Human ATX) [nM] | IC50 (ATX in human whole blood) [nM] | LPA reduction at 8 h [1] [%] | reduction of LPA levels in vivo (LPA levels)
CC(=O)N1CCN(c2ccc(C(C)Nc3ccc(OCc4ccc(C(F)(F)F)nc4)nn3)cc2)CC1 (centres unmarked) [Example 1.3] | 2.2 | 2 |  | 
CCc1nc2c(C)cc(N3CCN(CC(=O)N4CC(O)C4)CC3)cn2c1N(C)c1nc(-c2ccc(F)cc2)c(C#N)s1 [Example 2 in WO2014/139882, reference compound] |  |  | 58.1 | 
CC(=O)N1CCN(c2ccc([C@@H](CO)Nc3ccc(OCc4ccc(C(F)F)nc4)nn3)cc2)CC1 [Example 1.8] | 4.2 | 1.3 |  | 
CC(=O)N1CCN(c2ccc(C3(Nc4ccc(OCc5ccc(C(F)(F)F)nc5)nn4)CC3)cc2C)CC1 [Example 1.13] | 3.4 | 7.1 |  | 
O=C(NC[C@@H]1[C@H]2CN(C(=O)OCc3cc(C(F)(F)F)cc(C(F)(F)F)c3)C[C@@H]12)c1ccc2[nH]nnc2c1 |  |  |  | significantly reduces LPA levels in vivo
CC(=O)N1CCN(c2ccc(C3(Nc4ccc(OCc5ccc(C(F)(F)F)nc5)nn4)CC3)c(F)c2)CC1 [Example 1.12] | 4.8 | 7.7 |  | 
CC(=O)N(C)C1CCN(c2ccc(C3(Nc4ccc(OCc5ccc(C(F)F)nc5)nn4)CC3)cc2)C1 (centres unmarked) [Example 1.7] | 6.7 | 7 |  | 

The remaining molecules from weak to strong by IC50 (Human ATX), led by results:

IC50 (Human ATX) [nM] | IC50 (ATX in human whole blood) [nM] | Structure (SMILES) | LPA reduction at 8 h [1] [%] | reduction of LPA levels in vivo (LPA levels)
5.8 | 4.3 | CC(=O)N(C)C1CCN(c2ccc(C3(Nc4ccc(OCc5ccc(C(F)F)nc5)nn4)CC3)cc2)CC1 [Example 1.4] | 98.0 | 
5.3 | 5 | CC(=O)N1CCN(c2ccc([C@@H](CO)Nc3ccc(OCc4ccc(C(F)(F)F)nc4)nn3)cc2)CC1 [Example 1.9] |  | 
4.4 | 6.9 | CC(=O)N1CCN(c2ccc(C3(Nc4ccc(OCc5ccc(C(F)(F)F)nc5)nn4)CC3)cn2)CC1 [Example 1.11] | 96.3 | 
4.2 | 4.3 | CC(=O)N1CCN(c2ccc(C3(Nc4ccc(OCc5ccc(C(F)F)nc5)nn4)CC3)cc2)CC1 [Example 1.5] |  | 
3.4 | 1.8 | CC(=O)N1CCN(c2ccc([C@@H](C)Nc3ccc(OCc4ccc(C(F)(F)F)nc4)nn3)cc2)CC1 [Example 1.2] | 95.9 | 
2.6 | 7.8 | CC(=O)N1CCN(c2ccc([C@H](C)Nc3ccc(OCc4ccc(C(F)(F)F)nc4)nn3)cc2)CC1 [Example 1.6] |  | 
2.5 | 3.5 | CC(=O)N1CCN(c2ccc(C3(Nc4ccc(OCc5ccc(C(F)(F)F)nc5)nn4)CC3)cc2)CC1 [Example 1.1, 1-[4-(4-{1-[(6-{[6-(trifluoromethyl)pyridin-3-yl]methoxy}pyridazin-3-yl)amino]cyclopropyl}phenyl)piperazin-1-yl]ethan-1-one] | 97.0 | 
2.4 | 3.7 | CC(=O)N1CCN(c2ccc(C3(Nc4ccc(OCc5ccc(C(F)(F)F)nc5)nn4)CC3)cc2F)CC1 [Example 1.10] |  | 
